According to PMC4549042, “Targeting procaspase-3 with WF-208, a novel PAC-1 derivative, causes selective cancer cell apoptosis” (Journal of Cellular and Molecular Medicine, 2015):

Legend:
[1] = molecular target: T1, rh-procaspase-3 (Homo sapiens, UniProt P42574); test: Caspase-3 activation assay (procaspase-3 activation in vitro); format: biochemical; conditions: rh-procaspase-3, concentrations 0.08–100 μM
T1 construct: purchased R&D System (Minneapolis, USA)
T1 sequence (P42574 1-277): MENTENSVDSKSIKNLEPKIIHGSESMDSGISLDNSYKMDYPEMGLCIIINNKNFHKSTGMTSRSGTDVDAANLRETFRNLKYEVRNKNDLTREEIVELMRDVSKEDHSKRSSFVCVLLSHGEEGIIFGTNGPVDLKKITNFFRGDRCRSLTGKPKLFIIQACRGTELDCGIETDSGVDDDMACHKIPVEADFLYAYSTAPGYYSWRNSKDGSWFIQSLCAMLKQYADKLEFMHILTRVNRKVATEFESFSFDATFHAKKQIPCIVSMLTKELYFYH
Experimental: Procaspase-3 protein was purchased from R&D System (Minneapolis, USA). Procaspase-3 protein was added into 384-well plates. Tested compounds (or DMSO as control) were then added to achieve a final concentration of procaspase-3 of 50 ng/ml. Each plate was incubated for 2 hrs at 37°C. Then caspase-3 peptide substrate (acetyl Asp-Glu-Val-Asp-[…] (Ac-DEVD-pNa), 200 μM) were added. The absorbance of each well was measured at 405 nm in kinetic mode for 10 min [13].

[2] = system: PBL; test: MTT cytotoxicity in human peripheral blood lymphocytes; format: cell-based; conditions: 72 hrs
Experimental: Human peripheral blood lymphocytes were obtained as described previously. In brief, after diluting blood with PBS, lymphocytes were isolated by centrifugation over a density gradient of lymphocytes extracting solution for 15 min. at 280 × g. The cells were harvested, washed with PBS twice, and suspended in complete RPMI 1640 (Gibco, New York, USA) with 10% foetal bovine serum (Gibco, New York, USA).
(§1) The cell viability effects of the tested compounds were determined by MTT assay. Cells (1 × 10^4 cells/100 μl/well) were seeded into 96-well culture plates. After overnight incubation, cells were treated with various concentrations of compounds for 72 hrs. Subsequently, 10 μl MTT solution (2.5 mg/ml in PBS) was added to each well, than the cells were incubated for an additional 3–4 hrs at 37°C. After centrifugation (200 × g, 10 min.), the medium with MTT was aspirated, followed by the addition of 100 μl DMSO. The optical density of each well was measured at 570 nm with a Biotek Synergy TM HT Reader.

[3] = system: HL-60 cell line; test: MTT cell viability assay, HL-60; format: cell-based; conditions: Homo sapiens, 72 hrs
Experimental: as §1

[4] = system: PC-3 xenograft; test: Human prostatic carcinoma PC-3 xenograft mouse model; format: in vivo
Experimental: To determine the anti-tumour activity of WF-208 in vivo, viable human prostate cancer PC-3 cells (5 × 10^6/100 μl PBS per mouse) were subcutaneously (s.c.) injected into the right flank of 7- to 8-week old male SCID mice. When the average tumour volume reached 100 mm^3, mice were randomly divided into various treatment and control group (eight mice per group). Tumour size was measured once every 2 days with a calliper (calculated volume = shortest diameter^2 × longest diameter/2). Body weight, diet consumption and tumour size were recorded once every 2 days. After 2 weeks, mice were killed and tumours were excised and stored at −80°C until further analysis.

[5] = molecular target: T1, rh-procaspase-3; test: Assay of zinc inhibition of procaspase-3 activation; format: biochemical; conditions: PC3 + 5 μM ZnSO4; read-out: EC50 of procaspase-3 activation in zinc-containing buffer
Experimental: HEPES buffer [with 50 mM HEPES and 300 mM NaCl (pH 7.4)] was treated with Chelex resin to remove trace bivalent cations (including zinc ion). ZnSO4 and different concentration PAC-1 or WF-208 was added to procaspase-3 in HEPES to yield a final concentration of 0.5 μM procaspase-3. After 12 hrs of incubation at 37°C, Ac-DEVD-pNA in buffer [50 mM Hepes (pH 7.4), 100 mM NaCl, 10 mM DTT, 0.1 mM EDTA disodium salt, 0.10% Chaps, 10% glycerol] was added. The final concentration Ac-DEVD-pNA is 0.4 μM. Then the plate was read absorbance at 405 nm in kinetic mode for 10 min. On the other hand, after various time of incubation at 37°C, western blotting was used to detect the cleavage of procaspase-3 [13],[14].

[6] = system: mouse primary cortical cell; test: Cytotoxicity in mouse primary cortical neuron cells; format: cell-based; conditions: neurotoxicity
Experimental: as §1

[7] = system: XIAP and survivin mRNA; test: Quantitative PCR of XIAP and survivin mRNA; format: cell-based, human; conditions: real-time PCR, different concentrations
Experimental: About 1 × 10^6 cells were gathered after pre-treatment with PAC-1 or WF-208 as described previously. Total RNA was isolated using RNeasy Mini Kit (Qiagen, Duesseldorf, Germany) as described by the product’s instruction. One microgram of RNA was reversely transcribed with ReverAid First Stand cDNA Sythesis Kit (Thermo Fisher, Rockford, USA). For quantitative PCR, analysis was carried out by using iQ SYBR Green Supermix (Bio-Rad, West Berkeley, USA) and the CFX96 RT-PCR Detection System (Bio-Rad) as instructed by the manufacturer. Primers were GAPDH reverse primer 5′-[…]-3′ and forward primer 5′-TTGCCGACAGGATGCAGAA-3′; XIAP reverse primer 5′-TTGCCGACAGGATGCAGAA-3′ and forward primer 5′-[…]-3′; Survivin reverse primer 5′-GGAAACTGCGGAGAAAGTG-3′ and forward primer 5′-TAAACCCTGGAAGTGGTGC-3′. The PCR cycle started with 5 min. at 95°C, followed by 35 cycles of 3 steps (30 sec. at 95°C, 25 sec. at 56°C, 20 sec. at 72°C). The result was calculated as 2^−ΔΔCt of real-time fluorescence intensity.

[8] = system: HL-60 cells; test: Immunofluorescence of cleaved caspase-3; format: cell-based, human; conditions: 10 μM, 24 hrs
Experimental: HL-60 cells were treated with the 50 μM of PAC-1 and 10 μM WF-208 for 0.5, 1, 3, 6, 12 and 24 hrs. After such treatment, cells were fixed in 4% paraformaldehyde for 15 min., washed with PBS. Subsequently, cells were blocked with 10% bovine serum albumin (BSA) and Triton X-100 for 1 hr at room temperature and incubated at 4°C overnight with anti-cleaved caspase-3 rabbit mAb (1:100) diluted in 1% BSA. After three times of washing with PBS, cells were incubated with secondary antibody (FITC-conjugated goat anti-rabbit IgG, 1:200) for 1 hr at room temperature. Hoechst 33342 was used as a double staining for the nucleus. After washing with PBS, digital images of the cells captured under with ImageXpress 5000 (Molecular Devices, Sunnyvale, CA, USA). The images were quantified and analysed by using MetaXpress software (Molecular Devices). Cleaved caspase-3 level was expressed as the percentage of positively FITC-stained cells.

[9] = Western blot of tumour tissue after drug exposure

O=C(CN1CCN(Cc2nc(-c3ccc(COc4ccc(Cl)cc4)cc3)no2)CC1)N/N=C/c1ccc(OCc2csc(Cc3ccc4c(c3)OCO4)n2)cc1O [C2]
EC50 [1]: 0.56 µM
IC50 [2]: 743 µM
IC50 [3]: 0.08 µM
influence on body weight ([4]; 2.5 mg/kg i.v., 15 days): minimal influence
tumour volume compared with control group ([4]; 2.5 mg/kg i.v., 15 days): significantly reduced
expression of activated caspase-3 and cleaved PARP in tumour tissue [4, 9]: increased
expression of survivin and XIAP in tumour tissue [4, 9]: decreased
EC50 [5]: 2.49 µM
IC50 [6]: 96.2 µM
XIAP and survivin mRNA [7]: failed to change
cells with procaspase-3 cleaved [8]: more than 60%
